Laboratory results published in paper PMC6891286, “Towards the Development of an In vivo Chemical Probe for Cyclin G Associated Kinase (GAK)” (Molecules, 2019).

Experiments:
Experiment in all cases: KINOMEscan
Type in all cases: binding
Details in all cases: 35 at 1 µM; read-out: % inhibition
FLT3(R834Q) = target: T1, FLT3(R834Q) (Homo sapiens, UniProt P36888, R834Q)
T1 construct: purchased Eurofins DiscoverX (KINOMEscan)
Procedure: (§1) KinomeScan Assay on 35 was performed as previously described at EuroFins DiscoverX (Fremont, CA, USA).

FGFR4 = target: T2, FGFR4 (Homo sapiens, UniProt P22455)
T2 construct: purchased Eurofins DiscoverX (KINOMEscan)
Procedure: as §1

[1] = target: T3, ABL1(Q252H)-phosphorylated (Homo sapiens, UniProt P00519, Q252H)
T3 construct: purchased Eurofins DiscoverX (KINOMEscan)
Procedure: as §1

MARK4 = target: T4, MARK4 (Homo sapiens, UniProt Q96L34)
T4 construct: purchased Eurofins DiscoverX (KINOMEscan)
Procedure: as §1

CSNK1A1 = target: T5, CSNK1A1 (Homo sapiens, UniProt P48729)
T5 construct: purchased Eurofins DiscoverX (KINOMEscan)
Procedure: as §1

SRPK3 = target: T6, SRPK3 (Homo sapiens, UniProt Q9UPE1)
T6 construct: purchased Eurofins DiscoverX (KINOMEscan)
Procedure: as §1

CDK8 = target: T7, CDK8 (Homo sapiens, UniProt P49336)
T7 construct: purchased Eurofins DiscoverX (KINOMEscan)
Procedure: as §1

MKK7 = target: T8, MKK7 (Homo sapiens, UniProt O14733)
T8 construct: purchased Eurofins DiscoverX (KINOMEscan)
Procedure: as §1

IGF1R = target: T9, IGF1R (Homo sapiens, UniProt P08069)
T9 construct: purchased Eurofins DiscoverX (KINOMEscan)
Procedure: as §1

p38-beta = target: T10, p38-beta (Homo sapiens, UniProt Q15759)
T10 construct: purchased Eurofins DiscoverX (KINOMEscan)
Procedure: as §1

MYLK = target: T11, MYLK (Homo sapiens, UniProt Q15746)
T11 construct: purchased Eurofins DiscoverX (KINOMEscan)
Procedure: as §1

DRAK2 = target: T12, DRAK2 (Homo sapiens, UniProt O94768)
T12 construct: purchased Eurofins DiscoverX (KINOMEscan)
Procedure: as §1

[2] = target: T13, RPS6KA5(Kin.Dom.2-C-terminal) (Homo sapiens, UniProt O75582)
T13 construct: RPS6KA5(Kin.Dom.2-C-terminal); purchased Eurofins DiscoverX (KINOMEscan)
Procedure: as §1

BRSK2 = target: T14, BRSK2 (Homo sapiens, UniProt Q8IWQ3)
T14 construct: purchased Eurofins DiscoverX (KINOMEscan)
Procedure: as §1

CDK3 = target: T15, CDK3 (Homo sapiens, UniProt Q00526)
T15 construct: purchased Eurofins DiscoverX (KINOMEscan)
Procedure: as §1

DYRK1A = target: T16, DYRK1A (Homo sapiens, UniProt Q13627)
T16 construct: purchased Eurofins DiscoverX (KINOMEscan)
Procedure: as §1

EPHA5 = target: T17, EPHA5 (Homo sapiens, UniProt P54756)
T17 construct: purchased Eurofins DiscoverX (KINOMEscan)
Procedure: as §1

CDK9 = target: T18, CDK9 (Homo sapiens, UniProt P50750)
T18 construct: purchased Eurofins DiscoverX (KINOMEscan)
Procedure: as §1

PIM3 = target: T19, PIM3 (Homo sapiens, UniProt Q86V86)
T19 construct: purchased Eurofins DiscoverX (KINOMEscan)
Procedure: as §1

ERBB4 = target: T20, ERBB4 (Homo sapiens, UniProt Q15303)
T20 construct: purchased Eurofins DiscoverX (KINOMEscan)
Procedure: as §1

DYRK2 = target: T21, DYRK2 (Homo sapiens, UniProt Q92630)
T21 construct: purchased Eurofins DiscoverX (KINOMEscan)
Procedure: as §1

NLK = target: T22, NLK (Homo sapiens, UniProt Q9UBE8)
T22 construct: purchased Eurofins DiscoverX (KINOMEscan)
Procedure: as §1

CASK = target: T23, CASK (Homo sapiens, UniProt O14936)
T23 construct: purchased Eurofins DiscoverX (KINOMEscan)
Procedure: as §1

TNK1 = target: T24, TNK1 (Homo sapiens, UniProt Q13470)
T24 construct: purchased Eurofins DiscoverX (KINOMEscan)
Procedure: as §1

AMPK-alpha2 = target: T25, AMPK-alpha2 (Homo sapiens, UniProt P54646)
T25 construct: purchased Eurofins DiscoverX (KINOMEscan)
Procedure: as §1

MEK4 = target: T26, MEK4 (Homo sapiens, UniProt P45985)
T26 construct: purchased Eurofins DiscoverX (KINOMEscan)
Procedure: as §1

ADCK3 = target: T27, ADCK3 (Homo sapiens, UniProt Q8NI60)
T27 construct: purchased Eurofins DiscoverX (KINOMEscan)
Procedure: as §1

TYRO3 = target: T28, TYRO3 (Homo sapiens, UniProt Q06418)
T28 construct: purchased Eurofins DiscoverX (KINOMEscan)
Procedure: as §1

TIE1 = target: T29, TIE1 (Homo sapiens, UniProt P35590)
T29 construct: purchased Eurofins DiscoverX (KINOMEscan)
Procedure: as §1

EPHA3 = target: T30, EPHA3 (Homo sapiens, UniProt P29320)
T30 construct: purchased Eurofins DiscoverX (KINOMEscan)
Procedure: as §1

PDPK1 = target: T31, PDPK1 (Homo sapiens, UniProt O15530)
T31 construct: purchased Eurofins DiscoverX (KINOMEscan)
Procedure: as §1

MTOR = target: T32, MTOR (Homo sapiens, UniProt P42345)
T32 construct: purchased Eurofins DiscoverX (KINOMEscan)
Procedure: as §1

HIPK2 = target: T33, HIPK2 (Homo sapiens, UniProt Q9H2X6)
T33 construct: purchased Eurofins DiscoverX (KINOMEscan)
Procedure: as §1

SYK = target: T34, SYK (Homo sapiens, UniProt P43405)
T34 construct: purchased Eurofins DiscoverX (KINOMEscan)
Procedure: as §1

JNK1 = target: T35, JNK1 (Homo sapiens, UniProt P45983)
T35 construct: purchased Eurofins DiscoverX (KINOMEscan)
Procedure: as §1

[3] = target: T36, ABL1(F317L)-nonphosphorylated (Homo sapiens, UniProt P00519, F317L)
T36 construct: purchased Eurofins DiscoverX (KINOMEscan)
Procedure: as §1

EGFR = target: T37, EGFR (Homo sapiens, UniProt P00533)
T37 construct: purchased Eurofins DiscoverX (KINOMEscan)
Procedure: as §1

S6K1 = target: T38, S6K1 (Homo sapiens, UniProt P23443)
T38 construct: purchased Eurofins DiscoverX (KINOMEscan)
Procedure: as §1

CHEK2 = target: T39, CHEK2 (Homo sapiens, UniProt O96017)
T39 construct: purchased Eurofins DiscoverX (KINOMEscan)
Procedure: as §1

HUNK = target: T40, HUNK (Homo sapiens, UniProt P57058)
T40 construct: purchased Eurofins DiscoverX (KINOMEscan)
Procedure: as §1

HCK = target: T41, HCK (Homo sapiens, UniProt P08631)
T41 construct: purchased Eurofins DiscoverX (KINOMEscan)
Procedure: as §1

EGFR(S752-I759del) = target: T42, EGFR(S752-I759del) (Homo sapiens, UniProt P00533, DEL752-759)
T42 construct: purchased Eurofins DiscoverX (KINOMEscan)
Procedure: as §1

[4] = target: T43, EGFR(L747-E749del, A750P) (Homo sapiens, UniProt P00533, A750P/DEL747-749)
T43 construct: purchased Eurofins DiscoverX (KINOMEscan)
Procedure: as §1

T14 sequence (Q8IWQ3 whole entry): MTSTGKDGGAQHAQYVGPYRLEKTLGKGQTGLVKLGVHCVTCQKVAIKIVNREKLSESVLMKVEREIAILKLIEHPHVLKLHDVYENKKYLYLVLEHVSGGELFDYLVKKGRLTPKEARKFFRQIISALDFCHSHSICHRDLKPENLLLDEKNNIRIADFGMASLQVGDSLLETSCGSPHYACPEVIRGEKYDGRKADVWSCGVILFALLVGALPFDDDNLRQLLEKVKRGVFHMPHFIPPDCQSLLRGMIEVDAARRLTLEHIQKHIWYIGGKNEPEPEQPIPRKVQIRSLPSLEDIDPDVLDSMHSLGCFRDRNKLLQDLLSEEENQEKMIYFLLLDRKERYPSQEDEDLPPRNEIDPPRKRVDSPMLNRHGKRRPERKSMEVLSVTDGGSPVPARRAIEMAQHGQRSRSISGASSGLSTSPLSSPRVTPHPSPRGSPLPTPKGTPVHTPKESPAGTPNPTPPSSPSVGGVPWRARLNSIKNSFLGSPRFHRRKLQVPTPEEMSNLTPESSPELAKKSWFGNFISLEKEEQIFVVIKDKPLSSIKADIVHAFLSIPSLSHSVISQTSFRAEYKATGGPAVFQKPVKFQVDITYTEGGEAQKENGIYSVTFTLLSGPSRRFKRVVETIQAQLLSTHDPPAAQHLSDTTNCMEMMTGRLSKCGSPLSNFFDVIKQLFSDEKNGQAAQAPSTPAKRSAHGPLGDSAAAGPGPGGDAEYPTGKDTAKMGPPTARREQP
T30 sequence (P29320 21-983): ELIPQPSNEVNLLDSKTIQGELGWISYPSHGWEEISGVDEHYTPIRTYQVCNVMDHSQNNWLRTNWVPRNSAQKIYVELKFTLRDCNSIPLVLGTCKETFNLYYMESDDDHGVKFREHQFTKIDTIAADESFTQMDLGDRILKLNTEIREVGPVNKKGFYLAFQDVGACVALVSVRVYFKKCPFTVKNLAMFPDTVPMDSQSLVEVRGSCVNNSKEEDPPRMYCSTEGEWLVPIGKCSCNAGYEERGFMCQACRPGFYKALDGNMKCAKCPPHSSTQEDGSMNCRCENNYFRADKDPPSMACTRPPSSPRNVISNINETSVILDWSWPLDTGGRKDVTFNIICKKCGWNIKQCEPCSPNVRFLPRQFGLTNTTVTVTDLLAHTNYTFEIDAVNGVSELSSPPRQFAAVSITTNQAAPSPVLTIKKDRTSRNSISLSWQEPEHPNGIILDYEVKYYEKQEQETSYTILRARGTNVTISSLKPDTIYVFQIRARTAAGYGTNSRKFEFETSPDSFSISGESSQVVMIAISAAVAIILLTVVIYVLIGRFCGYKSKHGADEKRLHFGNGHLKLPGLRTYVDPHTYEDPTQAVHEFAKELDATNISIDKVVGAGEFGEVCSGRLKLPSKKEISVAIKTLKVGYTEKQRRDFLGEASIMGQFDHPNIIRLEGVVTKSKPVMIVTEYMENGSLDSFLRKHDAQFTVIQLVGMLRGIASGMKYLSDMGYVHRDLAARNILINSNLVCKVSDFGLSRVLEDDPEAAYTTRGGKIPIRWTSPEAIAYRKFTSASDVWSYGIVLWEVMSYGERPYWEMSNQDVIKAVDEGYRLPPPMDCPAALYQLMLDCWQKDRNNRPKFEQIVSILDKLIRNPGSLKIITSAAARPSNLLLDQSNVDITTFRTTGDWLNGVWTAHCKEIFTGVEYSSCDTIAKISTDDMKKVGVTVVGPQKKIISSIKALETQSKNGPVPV
T29 sequence (P35590 22-1138): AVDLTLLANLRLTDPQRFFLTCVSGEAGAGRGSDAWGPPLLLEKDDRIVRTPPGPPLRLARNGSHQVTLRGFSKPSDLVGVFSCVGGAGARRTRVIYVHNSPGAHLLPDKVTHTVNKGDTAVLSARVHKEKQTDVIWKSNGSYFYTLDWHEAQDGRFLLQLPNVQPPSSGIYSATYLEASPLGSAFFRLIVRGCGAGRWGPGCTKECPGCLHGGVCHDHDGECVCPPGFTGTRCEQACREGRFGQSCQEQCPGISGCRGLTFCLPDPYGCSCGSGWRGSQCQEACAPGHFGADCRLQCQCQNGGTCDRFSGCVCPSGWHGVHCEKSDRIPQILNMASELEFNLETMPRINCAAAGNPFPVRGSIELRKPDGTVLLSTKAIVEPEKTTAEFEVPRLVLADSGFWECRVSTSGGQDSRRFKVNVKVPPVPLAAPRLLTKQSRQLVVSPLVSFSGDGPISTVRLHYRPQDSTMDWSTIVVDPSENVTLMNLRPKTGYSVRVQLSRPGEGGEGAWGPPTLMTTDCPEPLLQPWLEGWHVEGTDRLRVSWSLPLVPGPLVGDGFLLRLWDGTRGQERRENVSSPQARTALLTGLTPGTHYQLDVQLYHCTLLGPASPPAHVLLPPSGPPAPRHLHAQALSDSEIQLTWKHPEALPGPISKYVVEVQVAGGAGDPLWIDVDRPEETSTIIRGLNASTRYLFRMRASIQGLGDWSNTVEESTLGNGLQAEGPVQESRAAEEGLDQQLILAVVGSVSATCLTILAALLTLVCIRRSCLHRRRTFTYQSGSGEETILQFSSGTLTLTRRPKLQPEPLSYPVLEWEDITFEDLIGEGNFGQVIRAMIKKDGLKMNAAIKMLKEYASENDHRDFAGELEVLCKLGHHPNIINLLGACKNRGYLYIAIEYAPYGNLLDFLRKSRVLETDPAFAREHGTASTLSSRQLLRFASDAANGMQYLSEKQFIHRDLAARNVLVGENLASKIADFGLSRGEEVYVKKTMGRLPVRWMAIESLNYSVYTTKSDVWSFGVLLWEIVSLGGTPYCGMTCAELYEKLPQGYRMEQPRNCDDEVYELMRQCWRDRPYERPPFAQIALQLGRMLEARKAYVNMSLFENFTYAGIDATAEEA
T33 sequence (Q9H2X6 whole entry): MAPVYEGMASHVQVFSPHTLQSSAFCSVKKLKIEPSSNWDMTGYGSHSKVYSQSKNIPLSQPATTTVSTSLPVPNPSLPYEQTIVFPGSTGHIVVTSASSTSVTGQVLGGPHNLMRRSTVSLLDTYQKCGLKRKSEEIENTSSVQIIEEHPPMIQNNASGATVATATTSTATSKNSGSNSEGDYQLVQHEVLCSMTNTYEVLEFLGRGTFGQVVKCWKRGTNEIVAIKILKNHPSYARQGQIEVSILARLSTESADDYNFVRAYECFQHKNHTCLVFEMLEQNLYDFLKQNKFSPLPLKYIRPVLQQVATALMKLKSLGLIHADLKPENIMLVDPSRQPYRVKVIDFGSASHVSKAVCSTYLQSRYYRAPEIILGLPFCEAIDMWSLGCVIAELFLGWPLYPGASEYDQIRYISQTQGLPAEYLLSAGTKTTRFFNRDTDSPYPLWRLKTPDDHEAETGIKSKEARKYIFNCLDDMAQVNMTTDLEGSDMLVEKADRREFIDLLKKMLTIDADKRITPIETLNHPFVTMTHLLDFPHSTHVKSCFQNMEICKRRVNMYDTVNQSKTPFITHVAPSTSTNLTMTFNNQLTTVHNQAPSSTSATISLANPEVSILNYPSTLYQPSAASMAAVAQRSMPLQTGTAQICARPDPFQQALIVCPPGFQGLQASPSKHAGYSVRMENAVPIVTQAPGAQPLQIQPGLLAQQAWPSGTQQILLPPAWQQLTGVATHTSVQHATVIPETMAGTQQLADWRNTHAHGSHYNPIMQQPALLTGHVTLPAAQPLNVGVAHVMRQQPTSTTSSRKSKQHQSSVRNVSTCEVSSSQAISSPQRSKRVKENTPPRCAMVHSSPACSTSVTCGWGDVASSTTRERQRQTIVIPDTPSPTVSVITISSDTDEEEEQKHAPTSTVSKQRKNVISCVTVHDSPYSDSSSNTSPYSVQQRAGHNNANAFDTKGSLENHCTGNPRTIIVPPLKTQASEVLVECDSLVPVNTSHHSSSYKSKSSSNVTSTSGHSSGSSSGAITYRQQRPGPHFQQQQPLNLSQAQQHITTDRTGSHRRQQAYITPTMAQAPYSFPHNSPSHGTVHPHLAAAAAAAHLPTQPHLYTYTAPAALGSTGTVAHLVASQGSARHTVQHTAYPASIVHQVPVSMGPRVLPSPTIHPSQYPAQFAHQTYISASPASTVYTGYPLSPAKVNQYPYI
T6 sequence (Q9UPE1 whole entry): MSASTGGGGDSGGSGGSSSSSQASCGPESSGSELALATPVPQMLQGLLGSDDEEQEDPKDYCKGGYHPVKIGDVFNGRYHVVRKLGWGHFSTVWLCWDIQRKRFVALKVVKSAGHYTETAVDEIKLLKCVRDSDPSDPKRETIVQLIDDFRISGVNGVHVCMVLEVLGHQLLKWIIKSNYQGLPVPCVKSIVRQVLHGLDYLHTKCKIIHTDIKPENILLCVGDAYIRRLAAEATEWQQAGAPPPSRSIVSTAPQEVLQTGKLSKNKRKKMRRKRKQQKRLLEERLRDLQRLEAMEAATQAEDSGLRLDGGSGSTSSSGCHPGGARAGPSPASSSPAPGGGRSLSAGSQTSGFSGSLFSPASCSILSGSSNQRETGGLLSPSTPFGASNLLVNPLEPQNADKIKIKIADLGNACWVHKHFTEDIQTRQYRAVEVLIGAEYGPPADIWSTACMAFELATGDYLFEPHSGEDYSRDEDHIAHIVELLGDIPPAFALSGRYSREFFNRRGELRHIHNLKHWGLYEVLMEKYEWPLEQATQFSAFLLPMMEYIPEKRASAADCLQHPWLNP
T8 sequence (O14733 whole entry): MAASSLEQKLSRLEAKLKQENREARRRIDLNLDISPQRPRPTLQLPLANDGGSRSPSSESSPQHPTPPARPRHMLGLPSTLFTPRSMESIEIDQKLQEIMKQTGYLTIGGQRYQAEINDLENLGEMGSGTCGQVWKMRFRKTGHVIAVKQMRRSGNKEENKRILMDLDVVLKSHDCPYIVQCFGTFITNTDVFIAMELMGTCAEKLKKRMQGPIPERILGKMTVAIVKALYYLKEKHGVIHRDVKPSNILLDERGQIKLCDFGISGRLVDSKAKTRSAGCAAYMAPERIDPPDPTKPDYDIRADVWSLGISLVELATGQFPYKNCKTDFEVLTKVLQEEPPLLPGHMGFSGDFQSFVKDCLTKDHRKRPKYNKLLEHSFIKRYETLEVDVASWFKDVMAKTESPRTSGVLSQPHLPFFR

Q: What does the source list for `Brc1ccc2nccc(Nc3ccc4cn[nH]c4c3)c2c1` [Compound 35, 6-Bromo-N-(1H-indazol-6-yl)quinolin-4-amine]?
A: activity at 1 µM (FLT3(R834Q)): 83%; activity at 1 µM (FGFR4): 100%; activity at 1 µM [1]: 100%; activity at 1 µM (MARK4): 100%; activity at 1 µM (CSNK1A1): 62%; activity at 1 µM (SRPK3): 100%; activity at 1 µM (CDK8): 83%; activity at 1 µM (MKK7): 100%; activity at 1 µM (IGF1R): 100%; activity at 1 µM (p38-beta): 100%; activity at 1 µM (MYLK): 100%; activity at 1 µM (DRAK2): 100%; activity at 1 µM [2]: 70%; activity at 1 µM (BRSK2): 100%; activity at 1 µM (CDK3): 96%; activity at 1 µM (DYRK1A): 77%; activity at 1 µM (EPHA5): 100%; activity at 1 µM (CDK9): 75%; activity at 1 µM (PIM3): 100%; activity at 1 µM (ERBB4): 100%; activity at 1 µM (DYRK2): 100%; activity at 1 µM (NLK): 100%; activity at 1 µM (CASK): 68%; activity at 1 µM (TNK1): 69%; activity at 1 µM (AMPK-alpha2): 100%; activity at 1 µM (MEK4): 100%; activity at 1 µM (ADCK3): 100%; activity at 1 µM (TYRO3): 99%; activity at 1 µM (TIE1): 100%; activity at 1 µM (EPHA3): 100%; activity at 1 µM (PDPK1): 100%; activity at 1 µM (MTOR): 100%; activity at 1 µM (HIPK2): 88%; activity at 1 µM (SYK): 89%; activity at 1 µM (JNK1): 83%; activity at 1 µM [3]: 78%; activity at 1 µM (EGFR): 100%; activity at 1 µM (S6K1): 91%; activity at 1 µM (CHEK2): 65%; activity at 1 µM (HUNK): 100%; activity at 1 µM (HCK): 100%; activity at 1 µM (EGFR(S752-I759del)): 89%; activity at 1 µM [4]: 81%
